Measured values taken from PubChem BioAssay (NCI).
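Dose response: 5 concentrations. Exposure: 48 h. Format: 96-well plates. Endpoint: linear interpolation; highest concentration if not reached. Abbreviation: GI50, concentration required for 50% inhibition of growth. TGI: concentration producing complete growth inhibition.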

Tests used:
Test in all cases: inhibition of tumour cell growth, NCI panel, 48 h
SF-295 CNS = system: SF-295 CNS
SF-539 CNS = system: SF-539 CNS
SK-OV-3 ovarian = system: SK-OV-3 ovarian
OVCAR-3 ovarian = system: OVCAR-3 ovarian
786-0 renal = system: 786-0 renal
OVCAR-4 ovarian = system: OVCAR-4 ovarian
HL-60(TB) leukemia = system: HL-60(TB) leukemia
RXF 393 renal = system: RXF 393 renal
OVCAR-5 ovarian = system: OVCAR-5 ovarian
OVCAR-8 ovarian = system: OVCAR-8 ovarian
HCT-116 colon = system: HCT-116 colon
A498 renal = system: A498 renal
SF-268 CNS = system: SF-268 CNS
MOLT-4 leukemia = system: MOLT-4 leukemia
KM12 colon = system: KM12 colon
UO-31 renal = system: UO-31 renal
SK-MEL-28 melanoma = system: SK-MEL-28 melanoma
HCC-2998 colon = system: HCC-2998 colon
RPMI-8226 leukemia = system: RPMI-8226 leukemia
NCI-H522 lung = system: NCI-H522 lung
CCRF-CEM leukemia = system: CCRF-CEM leukemia
HCT-15 colon = system: HCT-15 colon
SK-MEL-2 melanoma = system: SK-MEL-2 melanoma
HOP-62 NSCLC = system: HOP-62 NSCLC
EKVX NSCLC = system: EKVX NSCLC
COLO 205 colon = system: COLO 205 colon
SR leukemia = system: SR leukemia
NCI-H23 lung = system: NCI-H23 lung
SW-620 colon = system: SW-620 colon
M14 melanoma = system: M14 melanoma
HT29 colon = system: HT29 colon
CAKI-1 renal = system: CAKI-1 renal
SK-MEL-5 melanoma = system: SK-MEL-5 melanoma
NCI-H226 lung = system: NCI-H226 lung
XF 498 CNS = system: XF 498 CNS
U251 CNS = system: U251 CNS
SNB-19 CNS = system: SNB-19 CNS
SN12C renal = system: SN12C renal
KM20L2 colon = system: KM20L2 colon
ACHN renal = system: ACHN renal
LOX IMVI melanoma = system: LOX IMVI melanoma
HOP-92 NSCLC = system: HOP-92 NSCLC
UACC-62 melanoma = system: UACC-62 melanoma
IGROV1 ovarian = system: IGROV1 ovarian
MALME-3M melanoma = system: MALME-3M melanoma
A549 NSCLC = system: A549 NSCLC
NCI-H460 lung = system: NCI-H460 lung
TK-10 renal = system: TK-10 renal
UACC-257 melanoma = system: UACC-257 melanoma
K-562 leukemia = system: K-562 leukemia
SNB-75 CNS = system: SNB-75 CNS
M19-MEL melanoma = system: M19-MEL melanoma
DMS 114 small cell lung = system: DMS 114 small cell lung
DMS 273 small cell lung = system: DMS 273 small cell lung
DLD-1 colon = system: DLD-1 colon
LXFL 529 NSCLC = system: LXFL 529 NSCLC

Structure (SMILES): COc1cccc(/C=N/[N-]C(N)=O)c1[O-].[Ni+2].[OH3+]
- TGI (SF-295 CNS): 2360 nM
- TGI (SF-539 CNS): 2280 nM
- TGI (SK-OV-3 ovarian): 1690 nM
- TGI (OVCAR-3 ovarian): 596 nM
- TGI (786-0 renal): 474 nM
- TGI (OVCAR-4 ovarian): 1010 nM
- GI50 (HL-60(TB) leukemia): 111 nM
- TGI (HL-60(TB) leukemia): 860 nM
- TGI (RXF 393 renal): 800 nM
- TGI (OVCAR-5 ovarian): 2550 nM
- TGI (OVCAR-8 ovarian): 1660 nM
- TGI (HCT-116 colon): 270 nM
- TGI (A498 renal): 3150 nM
- TGI (SF-268 CNS): 945 nM
- TGI (MOLT-4 leukemia): 1580 nM
- TGI (KM12 colon): 910 nM
- TGI (UO-31 renal): 2090 nM
- TGI (SK-MEL-28 melanoma): 1720 nM
- TGI (HCC-2998 colon): 1020 nM
- TGI (RPMI-8226 leukemia): 4130 nM
- TGI (NCI-H522 lung): 250 nM
- TGI (CCRF-CEM leukemia): 1480 nM
- TGI (HCT-15 colon): 1170 nM
- TGI (SK-MEL-2 melanoma): 1460 nM
- TGI (HOP-62 NSCLC): 2520 nM
- TGI (EKVX NSCLC): 2570 nM
- TGI (COLO 205 colon): 291 nM
- TGI (SR leukemia): 2640 nM
- TGI (NCI-H23 lung): 735 nM
- GI50 (SW-620 colon): 135 nM
- TGI (SW-620 colon): 371 nM
- TGI (M14 melanoma): 2080 nM
- TGI (HT29 colon): 2070 nM
- TGI (CAKI-1 renal): 2190 nM
- TGI (SK-MEL-5 melanoma): 1650 nM
- TGI (NCI-H226 lung): 2110 nM
- GI50 (XF 498 CNS): 152 nM
- TGI (XF 498 CNS): 331 nM
- TGI (U251 CNS): 816 nM
- TGI (SNB-19 CNS): 1990 nM
- TGI (SN12C renal): 1490 nM
- TGI (KM20L2 colon): 2150 nM
- TGI (ACHN renal): 2070 nM
- TGI (LOX IMVI melanoma): 2150 nM
- TGI (HOP-92 NSCLC): 934 nM
- TGI (UACC-62 melanoma): 1350 nM
- TGI (IGROV1 ovarian): 811 nM
- TGI (MALME-3M melanoma): 2200 nM
- TGI (A549 NSCLC): 2270 nM
- TGI (NCI-H460 lung): 1650 nM
- TGI (TK-10 renal): 2740 nM
- TGI (UACC-257 melanoma): 1520 nM
- TGI (K-562 leukemia): 2310 nM
- TGI (SNB-75 CNS): 1570 nM

Structure (SMILES): O=C(CO[N+](=O)[O-])OC/C=C/c1ccccc1
- TGI (SF-295 CNS): > 100000 nM
- TGI (SF-539 CNS): > 100000 nM
- TGI (SK-OV-3 ovarian): > 100000 nM
- TGI (OVCAR-3 ovarian): > 100000 nM
- TGI (786-0 renal): > 100000 nM
- TGI (HL-60(TB) leukemia): 60600 nM
- TGI (RXF 393 renal): > 100000 nM
- TGI (M19-MEL melanoma): > 100000 nM
- TGI (OVCAR-5 ovarian): > 100000 nM
- TGI (OVCAR-8 ovarian): > 100000 nM
- TGI (HCT-116 colon): > 100000 nM
- TGI (DMS 114 small cell lung): > 100000 nM
- TGI (DMS 273 small cell lung): > 100000 nM
- TGI (DLD-1 colon): > 100000 nM
- TGI (SF-268 CNS): > 100000 nM
- TGI (MOLT-4 leukemia): > 100000 nM
- TGI (KM12 colon): > 100000 nM
- TGI (UO-31 renal): > 100000 nM
- TGI (HCC-2998 colon): > 100000 nM
- TGI (RPMI-8226 leukemia): > 100000 nM
- TGI (NCI-H522 lung): > 100000 nM
- TGI (CCRF-CEM leukemia): > 100000 nM
- TGI (HCT-15 colon): > 100000 nM
- TGI (SK-MEL-2 melanoma): > 100000 nM
- TGI (HOP-62 NSCLC): > 100000 nM
- TGI (EKVX NSCLC): > 100000 nM
- TGI (COLO 205 colon): > 100000 nM
- TGI (SR leukemia): > 100000 nM
- TGI (NCI-H23 lung): > 100000 nM
- TGI (SW-620 colon): > 100000 nM
- TGI (M14 melanoma): > 100000 nM
- TGI (HT29 colon): > 100000 nM
- TGI (CAKI-1 renal): > 100000 nM
- TGI (NCI-H226 lung): > 100000 nM
- TGI (U251 CNS): > 100000 nM
- TGI (SNB-19 CNS): > 100000 nM
- TGI (SN12C renal): > 100000 nM
- TGI (KM20L2 colon): > 100000 nM
- TGI (ACHN renal): > 100000 nM
- TGI (LOX IMVI melanoma): > 100000 nM
- TGI (HOP-92 NSCLC): > 100000 nM
- TGI (IGROV1 ovarian): > 100000 nM
- TGI (MALME-3M melanoma): > 100000 nM
- TGI (A549 NSCLC): > 100000 nM
- TGI (NCI-H460 lung): > 100000 nM
- TGI (TK-10 renal): > 100000 nM
- TGI (UACC-257 melanoma): > 100000 nM
- TGI (K-562 leukemia): > 100000 nM
- TGI (SNB-75 CNS): > 100000 nM
- TGI (LXFL 529 NSCLC): > 100000 nM
